According to US10392368B2, “Pyrazolo and triazolo bicyclic compounds as JAK kinase inhibitors” (THERAVANCE BIOPHARMA R&D IP, LLC, priority 2017, dated 2019):
Where two headings read alike, the source gives them in different places.

Experiments:
[1] = test system: IL-2 stimulated pSTAT5 in Tall-1 T cells; experiment: Cellular JAK3 potency assay: inhibition of IL-2 stimulated pSTAT5 in Tall-1 T cells; format: cell-based, human; settings: for IC50: Homo sapiens, read-out: Tall-1 (pIC50) (converted)
Outline: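 In human Tall-1 T cells, IL-2 (300 ng/ml final, 30 min) drives STAT5 phosphorylation after a 1 h compound pretreatment. Lysates are assayed for pSTAT5 by AlphaLisa, and IC50 derived from signal versus concentration is expressed as pIC50.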

Tyk2 = target: T1, Tyk2 (Homo sapiens, UniProt P29597); experiment: Biochemical Tyk2 kinase assay (LanthaScreen); settings: for Ki: read-out: Tyk 2 (pKi) (converted)
T1 construct: GST; purchased Life Technologies
Outline: (§1)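 TR-FRET read-out: terbium anti-pSTAT1 (pTyr701) antibody, 2 nM, with 10 mM EDTA quench, emission ratio 520/495 nm. GST-JAK phosphorylates GFP-STAT1 peptide for 1 h at ambient temperature after 1 h compound pre-incubation. pIC50 from dose-response converted to pKi by Cheng-Prusoff.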

JAK1 = target: T2, JAK1 (Homo sapiens, UniProt P23458); experiment: Biochemical JAK1 kinase assay (LanthaScreen); settings: for Ki: read-out: JAK 1 (pKi) (converted)
T2 construct: GST; purchased Life Technologies
Outline: as §1

JAK3 = target: T3, JAK3 (Homo sapiens, UniProt P52333); experiment: Biochemical JAK3 kinase assay (LanthaScreen); parameters: GST; purchased Life Technologies; settings: for Ki: read-out: JAK 3 (pKi) (converted)
T3 sequence (P52333 1-1124): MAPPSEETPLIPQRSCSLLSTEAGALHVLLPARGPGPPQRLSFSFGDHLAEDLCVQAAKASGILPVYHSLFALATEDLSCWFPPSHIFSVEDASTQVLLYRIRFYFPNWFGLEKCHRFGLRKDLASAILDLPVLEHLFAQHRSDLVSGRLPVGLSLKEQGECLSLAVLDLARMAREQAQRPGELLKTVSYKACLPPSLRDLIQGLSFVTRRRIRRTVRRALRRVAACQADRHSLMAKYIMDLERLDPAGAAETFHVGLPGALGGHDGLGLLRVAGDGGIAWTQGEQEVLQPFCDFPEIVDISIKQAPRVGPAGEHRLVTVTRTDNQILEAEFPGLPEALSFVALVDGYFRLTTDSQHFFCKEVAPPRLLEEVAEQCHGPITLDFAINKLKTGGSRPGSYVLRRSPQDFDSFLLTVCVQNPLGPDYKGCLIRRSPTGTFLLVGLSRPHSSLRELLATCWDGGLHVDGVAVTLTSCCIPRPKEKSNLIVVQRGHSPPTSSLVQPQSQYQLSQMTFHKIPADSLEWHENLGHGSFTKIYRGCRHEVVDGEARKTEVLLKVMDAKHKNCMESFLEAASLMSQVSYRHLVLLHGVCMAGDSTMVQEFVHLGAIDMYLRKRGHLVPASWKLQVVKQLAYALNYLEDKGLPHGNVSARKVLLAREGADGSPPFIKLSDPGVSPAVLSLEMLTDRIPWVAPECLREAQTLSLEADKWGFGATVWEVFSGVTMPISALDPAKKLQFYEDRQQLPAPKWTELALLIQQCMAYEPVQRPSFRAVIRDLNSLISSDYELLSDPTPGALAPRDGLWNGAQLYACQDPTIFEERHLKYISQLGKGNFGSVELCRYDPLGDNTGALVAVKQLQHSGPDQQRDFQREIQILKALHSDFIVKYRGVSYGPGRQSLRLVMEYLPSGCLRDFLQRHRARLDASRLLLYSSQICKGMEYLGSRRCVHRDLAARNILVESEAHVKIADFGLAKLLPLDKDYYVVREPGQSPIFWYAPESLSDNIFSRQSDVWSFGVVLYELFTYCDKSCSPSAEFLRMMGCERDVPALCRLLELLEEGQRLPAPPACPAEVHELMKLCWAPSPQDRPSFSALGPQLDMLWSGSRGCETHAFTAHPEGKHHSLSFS
Outline: as §1

JAK2 = target: T4, JAK2 (Homo sapiens, UniProt O60674); experiment: Biochemical JAK2 kinase assay (LanthaScreen); settings: for Ki: read-out: JAK 2 (pKi) (converted)
T4 construct: GST; purchased Life Technologies
Outline: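 GST-tagged recombinant JAK2 pre-incubated 1 h at ambient temperature with compound and GFP-STAT1 peptide in HEPES pH 7.5/MgCl2 buffer, then ATP added for a 1 h reaction with 1% DMSO. TR-FRET read after EDTA and Tb-anti-pSTAT1 (pTyr701) addition; IC50 from 4-parameter fit, converted to pKi by Cheng-Prusoff.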

[2] = TALL-1, IL-2 stimulated pSTAT5, Tall-1 T cells
[3] = selectivity JAK3 over JAK1, difference of pKi
[4] = IL-2 stimulated pSTAT5 in Tall-1 T cells
[5] = selectivity: difference of pKi JAK3 and pKi JAK1
[6] = TALL-1, IL-2 stimulated pSTAT5 in Tall-1 T cells
[7] = IL-2 stimulated pSTAT5, Tall-1 T cells

T4 sequence (O60674 whole entry): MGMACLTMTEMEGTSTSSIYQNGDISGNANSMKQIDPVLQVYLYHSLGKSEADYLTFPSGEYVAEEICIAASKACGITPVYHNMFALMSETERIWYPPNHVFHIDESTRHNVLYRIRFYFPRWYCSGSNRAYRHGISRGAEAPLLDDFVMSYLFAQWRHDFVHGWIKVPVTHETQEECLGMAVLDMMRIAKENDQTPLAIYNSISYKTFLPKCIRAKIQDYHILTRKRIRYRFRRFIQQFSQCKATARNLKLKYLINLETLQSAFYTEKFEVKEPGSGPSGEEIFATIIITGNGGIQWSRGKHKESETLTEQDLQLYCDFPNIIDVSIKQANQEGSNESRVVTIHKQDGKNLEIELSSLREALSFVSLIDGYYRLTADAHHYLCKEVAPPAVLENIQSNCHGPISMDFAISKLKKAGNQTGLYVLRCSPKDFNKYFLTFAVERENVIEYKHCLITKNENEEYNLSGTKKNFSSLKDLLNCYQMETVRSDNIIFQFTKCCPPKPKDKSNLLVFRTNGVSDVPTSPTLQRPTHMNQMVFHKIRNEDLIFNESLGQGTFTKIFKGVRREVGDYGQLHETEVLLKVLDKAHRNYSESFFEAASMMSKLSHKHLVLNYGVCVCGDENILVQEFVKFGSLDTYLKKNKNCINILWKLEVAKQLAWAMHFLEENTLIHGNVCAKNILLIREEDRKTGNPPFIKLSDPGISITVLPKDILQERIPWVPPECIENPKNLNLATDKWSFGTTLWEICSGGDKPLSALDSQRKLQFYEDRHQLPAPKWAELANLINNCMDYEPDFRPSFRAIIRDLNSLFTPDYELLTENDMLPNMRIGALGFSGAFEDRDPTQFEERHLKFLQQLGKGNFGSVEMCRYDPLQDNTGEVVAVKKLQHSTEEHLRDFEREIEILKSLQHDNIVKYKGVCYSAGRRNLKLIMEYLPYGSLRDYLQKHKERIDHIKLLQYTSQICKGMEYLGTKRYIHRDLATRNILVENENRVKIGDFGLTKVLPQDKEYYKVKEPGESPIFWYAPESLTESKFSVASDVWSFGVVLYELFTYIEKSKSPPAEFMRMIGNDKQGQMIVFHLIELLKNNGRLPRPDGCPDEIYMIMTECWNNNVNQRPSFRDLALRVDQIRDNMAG
T1 sequence (P29597 whole entry): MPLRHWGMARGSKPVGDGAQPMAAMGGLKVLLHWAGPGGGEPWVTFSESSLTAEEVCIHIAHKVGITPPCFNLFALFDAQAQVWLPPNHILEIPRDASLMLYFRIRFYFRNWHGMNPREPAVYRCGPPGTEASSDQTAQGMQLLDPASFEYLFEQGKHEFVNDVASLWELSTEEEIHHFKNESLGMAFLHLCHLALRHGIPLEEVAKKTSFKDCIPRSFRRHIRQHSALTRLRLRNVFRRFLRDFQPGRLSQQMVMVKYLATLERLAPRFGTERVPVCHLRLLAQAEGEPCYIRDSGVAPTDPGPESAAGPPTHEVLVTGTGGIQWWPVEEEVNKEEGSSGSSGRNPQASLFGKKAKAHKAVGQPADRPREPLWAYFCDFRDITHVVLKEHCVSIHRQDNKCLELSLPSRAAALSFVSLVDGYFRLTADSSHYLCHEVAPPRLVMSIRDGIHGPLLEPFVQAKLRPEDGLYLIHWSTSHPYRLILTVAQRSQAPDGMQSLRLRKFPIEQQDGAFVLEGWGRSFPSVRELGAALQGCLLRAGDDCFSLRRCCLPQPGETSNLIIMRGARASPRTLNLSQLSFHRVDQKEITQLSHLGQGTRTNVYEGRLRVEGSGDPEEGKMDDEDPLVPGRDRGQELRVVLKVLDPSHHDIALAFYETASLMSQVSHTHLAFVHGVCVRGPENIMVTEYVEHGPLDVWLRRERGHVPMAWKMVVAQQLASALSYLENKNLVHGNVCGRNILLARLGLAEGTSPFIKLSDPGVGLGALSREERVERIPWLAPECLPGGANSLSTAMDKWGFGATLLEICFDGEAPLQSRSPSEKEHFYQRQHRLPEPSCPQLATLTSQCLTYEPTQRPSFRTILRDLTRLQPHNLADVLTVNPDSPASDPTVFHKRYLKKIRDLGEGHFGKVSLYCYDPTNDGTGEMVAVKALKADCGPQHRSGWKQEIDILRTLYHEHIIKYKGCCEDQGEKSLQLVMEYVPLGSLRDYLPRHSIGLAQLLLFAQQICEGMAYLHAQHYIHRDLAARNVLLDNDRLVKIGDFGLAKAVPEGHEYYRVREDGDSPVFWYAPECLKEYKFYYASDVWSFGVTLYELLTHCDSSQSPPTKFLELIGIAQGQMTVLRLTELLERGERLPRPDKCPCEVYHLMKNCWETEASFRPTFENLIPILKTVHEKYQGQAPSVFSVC
T2 sequence (P23458 whole entry): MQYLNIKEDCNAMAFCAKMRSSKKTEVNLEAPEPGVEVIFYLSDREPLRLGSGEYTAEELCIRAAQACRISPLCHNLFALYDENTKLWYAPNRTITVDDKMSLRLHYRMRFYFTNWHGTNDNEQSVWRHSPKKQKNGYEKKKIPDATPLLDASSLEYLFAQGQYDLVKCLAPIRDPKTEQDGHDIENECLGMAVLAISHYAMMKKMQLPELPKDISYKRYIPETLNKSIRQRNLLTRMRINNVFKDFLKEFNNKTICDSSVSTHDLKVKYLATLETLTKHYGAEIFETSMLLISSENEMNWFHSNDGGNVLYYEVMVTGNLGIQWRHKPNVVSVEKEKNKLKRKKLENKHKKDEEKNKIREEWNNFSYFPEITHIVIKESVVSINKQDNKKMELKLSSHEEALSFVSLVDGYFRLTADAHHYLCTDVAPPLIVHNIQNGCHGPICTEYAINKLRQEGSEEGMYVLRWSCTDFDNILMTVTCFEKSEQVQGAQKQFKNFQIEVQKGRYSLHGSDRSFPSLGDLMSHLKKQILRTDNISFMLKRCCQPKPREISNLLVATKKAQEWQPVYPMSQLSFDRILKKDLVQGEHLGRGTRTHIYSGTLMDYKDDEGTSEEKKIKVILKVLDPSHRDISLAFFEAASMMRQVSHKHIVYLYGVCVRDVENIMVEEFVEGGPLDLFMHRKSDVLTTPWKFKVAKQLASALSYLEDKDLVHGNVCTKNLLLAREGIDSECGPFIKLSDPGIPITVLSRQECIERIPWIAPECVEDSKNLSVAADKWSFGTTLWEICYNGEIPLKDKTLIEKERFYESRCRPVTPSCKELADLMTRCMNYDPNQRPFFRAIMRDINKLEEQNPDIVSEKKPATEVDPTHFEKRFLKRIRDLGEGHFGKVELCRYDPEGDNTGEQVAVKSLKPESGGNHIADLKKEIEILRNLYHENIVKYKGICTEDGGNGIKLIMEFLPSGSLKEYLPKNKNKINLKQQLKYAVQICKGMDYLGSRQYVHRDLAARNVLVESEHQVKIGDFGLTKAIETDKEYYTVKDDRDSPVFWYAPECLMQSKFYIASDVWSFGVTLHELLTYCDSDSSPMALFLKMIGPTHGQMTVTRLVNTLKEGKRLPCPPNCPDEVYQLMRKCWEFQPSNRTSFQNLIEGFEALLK

Row | Compound | IC50 [1, 2] [nM] | Ki (Tyk2) [nM] | Ki (JAK1) [nM] | Ki (JAK3) [nM] | JAK3 (pKi)-JAK1 (pKi) (JAK3; [3]) | Ki (JAK2) [nM] | Tall-1 (pIC50) [1, 4] | Tyk 2 (pKi) (Tyk2) | JAK 1 (pKi) (JAK1) | JAK 3 (pKi) (JAK3) | JAK3 (pKi)-JAK1 (pKi) (JAK3; [5]) | JAK 2 (pKi) (JAK2) | IC50 [1, 6] [nM] | Tall-1 (pIC50) [1, 7]
1 | C=CC(=O)N1CC(COc2cc(-c3ccc(O)c(C)c3)cc3[nH]ncc23)C1 [Compound 18-9] | < 31.6 | > 100 | > 100 | < 0.1 | A (a value of 3 or above) | > 100 | – | – | – | – | – | – | – | –
2 | CCC1(COc2cc(-c3ccc(O)cc3)cc3[nH]ncc23)CN(C(=O)/C=C/CN(C)C)C1 [Compound 3-13] | – | – | – | – | – | – | A (a pIC50 value≥7.5 (IC50≤32 nM)) | E (a pKi value of 7 or below (Ki of 100 nM or above)) | E (a pKi value of 7 or below (Ki of 100 nM or above)) | B (a pKi value between 9 and 10 (Ki between 1 nM and 0.1 nM)) | A (a value of 3 or above) | D (a pKi value between 7 and 8 (Ki between 100 nM and 10 nM)) | – | –
3 | C=CC(=O)N1CC(CC)(COc2nc(-c3ccc(O)c(Cl)c3)cc3[nH]ncc23)C1 [Compound 3-66] | – | – | – | – | – | – | A (a pIC50 value≥7.5 (IC50≤32 nM)) | E (a pKi value of 7 or below (Ki of 100 nM or above)) | E (a pKi value of 7 or below (Ki of 100 nM or above)) | B (a pKi value between 9 and 10 (Ki between 1 nM and 0.1 nM)) | A (a value of 3 or above) | E (a pKi value of 7 or below (Ki of 100 nM or above)) | – | –
4 | COC1(C)CN(C/C=C/C(=O)N2CC(COc3cc(-c4ccc(O)cc4)cc4[nH]ncc34)C2)C1 [Compound 3-133] | – | > 100 | > 100 | < 0.1 | – | 10 to 100 | – | – | – | – | A (a value of 3 or above) | – | 200 to 1000 | –
5 | COC1CN(C/C=C/C(=O)N2CC(COc3cc(-c4ccc(O)cc4)cc4[nH]ncc34)C2)C1 [Compound 3-132] | – | > 100 | > 100 | 0.1 to 1 | – | > 100 | – | – | – | – | A (a value of 3 or above) | – | 200 to 1000 | –
6 | C=CC(=O)N1CC(C)(Oc2cc(-c3ccc(O)cc3)cc3[nH]ncc23)C1 [Compound 5-12] | – | – | – | – | – | – | B (a pIC50 value between 6.7 (included) and 7.5 (IC50 between 200 nM and 32 nM)) | E (a pKi value of 7 or below (Ki of 100 nM or above)) | E (a pKi value of 7 or below (Ki of 100 nM or above)) | B (a pKi value between 9 and 10 (Ki between 1 nM and 0.1 nM)) | A (a value of 3 or above) | E (a pKi value of 7 or below (Ki of 100 nM or above)) | – | –
7 | CN(C)C/C=C/C(=O)N1CC2(CC(Oc3cc(-c4ccc(O)c(F)c4)cc4[nH]ncc34)C2)C1 [Compound 15-5] | – | – | – | – | B (a value of 2.3 to 3) | – | – | E (a pKi value of 7 or below (Ki of 100 nM or above)) | D (a pKi value between 7 and 8 (Ki between 100 nM and 10 nM)) | B (a pKi value between 9 and 10 (Ki between 1 nM and 0.1 nM)) | – | D (a pKi value between 7 and 8 (Ki between 100 nM and 10 nM)) | – | B (a pIC50 value between 6.7 (included) and 7.5 (IC50 between 200 nM and 32 nM))
8 | C=CC(=O)N1CC(C)(COc2nc(-c3ccc(O)c(F)c3)cc3[nH]ncc23)C1 [Compound 3-59] | – | – | – | – | – | – | A (a pIC50 value≥7.5 (IC50≤32 nM)) | E (a pKi value of 7 or below (Ki of 100 nM or above)) | E (a pKi value of 7 or below (Ki of 100 nM or above)) | B (a pKi value between 9 and 10 (Ki between 1 nM and 0.1 nM)) | B (a value of 2.3 to 3) | D (a pKi value between 7 and 8 (Ki between 100 nM and 10 nM)) | – | –
9 | Cc1cc(-c2cc(OCC3CN(C(=O)/C=C/CN(C)C)C3)c3cn[nH]c3c2)ccc1O [Compound 18-8] | – | – | – | – | A (a value of 3 or above) | – | – | E (a pKi value of 7 or below (Ki of 100 nM or above)) | E (a pKi value of 7 or below (Ki of 100 nM or above)) | B (a pKi value between 9 and 10 (Ki between 1 nM and 0.1 nM)) | – | E (a pKi value of 7 or below (Ki of 100 nM or above)) | – | B (a pIC50 value between 6.7 (included) and 7.5 (IC50 between 200 nM and 32 nM))
10 | CN(C)C/C=C/C(=O)N1CC(C)(COc2cc(-c3ccc(O)cc3)cc3[nH]ncc23)C1 [Compound 3-7] | – | > 100 | > 100 | < 0.1 | – | 10 to 100 | – | – | – | – | A (a value of 3 or above) | – | 31.6 to 200 | –
11 | C=CC(=O)N1CC2(CC(Oc3cc(-c4ccc(O)c(F)c4)cc4[nH]ncc34)C2)C1 [Compound 15-2] | – | – | – | – | B (a value of 2.3 to 3) | – | – | E (a pKi value of 7 or below (Ki of 100 nM or above)) | D (a pKi value between 7 and 8 (Ki between 100 nM and 10 nM)) | A (a pKi value≥10 (Ki≤0.1 nM)) | – | D (a pKi value between 7 and 8 (Ki between 100 nM and 10 nM)) | – | A (a pIC50 value≥7.5 (IC50≤32 nM))
12 | C=CC(=O)N1CC(Oc2cc(-c3ccc(O)c(F)c3)cc3[nH]ncc23)C1 [Compound 5-6] | – | – | – | – | – | – | B (a pIC50 value between 6.7 (included) and 7.5 (IC50 between 200 nM and 32 nM)) | E (a pKi value of 7 or below (Ki of 100 nM or above)) | E (a pKi value of 7 or below (Ki of 100 nM or above)) | B (a pKi value between 9 and 10 (Ki between 1 nM and 0.1 nM)) | A (a value of 3 or above) | E (a pKi value of 7 or below (Ki of 100 nM or above)) | – | –
13 | C=CC(=O)N1CCC(Nc2cc(-c3ccc(O)cc3)cc3[nH]ncc23)CC1 [Compound 7-4] | < 31.6 | > 100 | 10 to 100 | 0.1 to 1 | B (a value of 2.3 to 3) | 1 to 10 | – | – | – | – | – | – | – | –
